Laboratory results from PMC7594079, “Insights into the Function and Evolution of Taste 1 Receptor Gene Family in the Carnivore Fish Gilthead Seabream (Sparus aurata)” (International Journal of Molecular Sciences, 2020).

How the values were obtained:
Assay type in all cases: cell-based
[1] = biological target: T1, saT1R2a/R3 (Sparus aurata, UniProt A0A671TK95+A0A671VZB3); experiment: saT1R2a/R3 heterodimer transiently transfected in stable pGL3-NFAT-luc-HEK293 (Cl.3) cells, luciferase reporter; conditions: saT1R2a/R3; tested 1–500 mM
T1 sequence (A0A671TK95 20-825): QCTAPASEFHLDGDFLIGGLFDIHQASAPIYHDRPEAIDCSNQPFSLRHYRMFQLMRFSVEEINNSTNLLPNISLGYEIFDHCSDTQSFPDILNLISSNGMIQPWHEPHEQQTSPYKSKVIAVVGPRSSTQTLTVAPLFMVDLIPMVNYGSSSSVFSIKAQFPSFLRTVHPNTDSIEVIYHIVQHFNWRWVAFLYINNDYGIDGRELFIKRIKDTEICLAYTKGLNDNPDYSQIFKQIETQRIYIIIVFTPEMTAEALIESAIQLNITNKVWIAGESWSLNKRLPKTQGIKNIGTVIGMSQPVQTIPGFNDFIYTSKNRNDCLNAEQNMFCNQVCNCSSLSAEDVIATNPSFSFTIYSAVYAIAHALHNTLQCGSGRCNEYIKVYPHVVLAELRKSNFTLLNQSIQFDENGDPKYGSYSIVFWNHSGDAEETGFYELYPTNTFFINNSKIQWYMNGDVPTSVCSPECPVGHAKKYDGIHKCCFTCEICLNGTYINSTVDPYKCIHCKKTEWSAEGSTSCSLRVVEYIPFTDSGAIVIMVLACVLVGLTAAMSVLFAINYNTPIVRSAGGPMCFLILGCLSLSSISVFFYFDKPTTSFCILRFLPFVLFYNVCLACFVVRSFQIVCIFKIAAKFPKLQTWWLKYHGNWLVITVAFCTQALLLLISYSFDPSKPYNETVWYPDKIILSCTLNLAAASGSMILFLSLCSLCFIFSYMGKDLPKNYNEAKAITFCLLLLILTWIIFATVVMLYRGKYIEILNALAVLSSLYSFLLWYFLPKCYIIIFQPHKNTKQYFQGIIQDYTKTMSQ
T1 sequence (A0A671VZB3 24-860): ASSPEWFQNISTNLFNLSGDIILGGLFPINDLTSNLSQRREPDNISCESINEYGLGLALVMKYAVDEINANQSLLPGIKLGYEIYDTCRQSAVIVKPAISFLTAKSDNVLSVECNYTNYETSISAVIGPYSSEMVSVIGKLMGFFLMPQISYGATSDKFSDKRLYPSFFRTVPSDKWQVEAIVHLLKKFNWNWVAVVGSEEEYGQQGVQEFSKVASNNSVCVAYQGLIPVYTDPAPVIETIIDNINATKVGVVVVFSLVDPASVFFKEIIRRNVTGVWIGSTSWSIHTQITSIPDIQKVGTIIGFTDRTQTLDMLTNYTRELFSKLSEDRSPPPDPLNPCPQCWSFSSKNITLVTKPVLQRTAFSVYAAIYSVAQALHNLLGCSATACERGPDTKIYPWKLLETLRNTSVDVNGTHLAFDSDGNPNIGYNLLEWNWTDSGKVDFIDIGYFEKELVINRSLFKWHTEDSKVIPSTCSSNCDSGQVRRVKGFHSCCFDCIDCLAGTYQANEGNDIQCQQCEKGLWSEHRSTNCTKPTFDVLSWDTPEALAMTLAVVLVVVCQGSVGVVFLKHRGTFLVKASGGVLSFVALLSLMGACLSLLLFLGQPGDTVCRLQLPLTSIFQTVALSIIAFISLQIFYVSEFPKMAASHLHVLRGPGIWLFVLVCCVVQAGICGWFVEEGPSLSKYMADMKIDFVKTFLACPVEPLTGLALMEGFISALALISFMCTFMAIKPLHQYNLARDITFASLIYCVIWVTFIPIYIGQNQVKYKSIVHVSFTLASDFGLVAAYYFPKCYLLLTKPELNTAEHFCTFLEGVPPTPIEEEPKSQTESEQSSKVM
Text: (§1) Figure 6 Amino acid Log-dose response curves of activation in heterologous co-transfected (Cl.3) cells with saT1R1/3 (green dots), saT1R2a/3 (red squares) and saT1R2b/3 (black triangles) heterodimers. Evaluation of L-AA responses was based on the RLU mean ± SEM of four independent determinations normalized to the mean response of the same transfections stimulated with reduced assay medium (Basal Medium Eagle w/o L-glutamate (BME) + 1% FBS), and expressed as the percentage relative to basal levels (BL).
(§2) HEK293 cells were cultured in standard medium DMEM (Gibco, Thermo Fisher, Saint Louis, MO, USA) containing 10% FBS, penicillin (100 U/mL) and streptomycin ([…]) at 37 °C, with a humidified atmosphere at 5% CO2. pGL3-NFAT-luc-HEK293 stable clones were generated by co-transfections of pGL3-NFAT-luc and tgCMV/HyTK plasmids (50:1), the latter harboring the hygromycin phosphotransferase gene, using Lipofectamine LTX according to supplier’s protocols (Thermo Fisher, Saint Louis, MO, USA). Initially, HEK293 cells were selected using DMEM containing 400 μg/mL hygromycin B (Sigma, Darmstadt, Germany) in 24-well plates for two weeks; 24 colonies were further grown out in 96-well plates under reduced hygromycin selection (200 µg/mL) for three weeks. Potentially resistant NFAT-luc-HEK293 clones (n = 22) were validated after incubation in assay medium (DMEM + 1% FBS) containing PMA or Ionomycin (Sigma, Darmstadt, Germany) for 18 h (triplicates, 50,000 cells/well). Luciferase activity was quantified with ONE-Glo™ EX Reagent Kit (Promega, Madison, WI, USA) using a 96-microplate TECAN reader (Trading AG, Switzerland).
(§3) saT1Rs (saT1R1, saT1R2a, saT1R2b saT1R3) and saGαi1-2 genes were RT-PCR amplified using 5’ and 3’ flanking primers carrying HindIII and XhoI restriction sites, respectively. Gel-purified fragments were cloned into pGEM-T Easy vectors, re-sequenced, digested and subcloned into pcDNA™3 (Invitrogen, Carlsbad, CA, USA). Effective saT1R cloning into pcDNA™3 was further verified by HindIII/XhoI digestion. Transient co-transfections were done in 6-well plates (confluence ~70–80%) using 100 μL of reduced serum medium (Opti-MEM, Gibco, Thermo Fisher, Saint Louis, MO, USA) containing 150 ng of each selected pcDNA™3 construct, 1:10 charge ratio of Enhanced Green Fluorescent expressing construct (EGFP; positive control), and pBluescript II SK (+) vector DNA (Addgene, Watertown, MA, USA) up to 1 µg of totally transfected DNA. Following 24 h incubation, cells were washed with fresh standard medium and plated in polylysine treated plates for additional 24 h. Cells were then stimulated with L-AAs and sugar compounds for 18 h in a reduced assay medium (BME w/o L-glutamate; Gibco, Thermo Fisher, Saint Louis, MO, USA) + 1% FBS), to prevent unspecific Ca^2+/NFAT signaling activation and potential saT1R desensitization. All L-AAs and sugars used for in vitro experiments were obtained from Merck KGaA (Darmstadt, Germany).

[2] = biological target: T2, saT1R2b/R3 (Sparus aurata, UniProt A0A671TG56+A0A671VZB3); experiment: saT1R2b/R3 heterodimer transiently transfected in stable pGL3-NFAT-luc-HEK293 (Cl.3) cells, luciferase reporter; conditions: saT1R2b/R3; tested 1–500 mM
T2 sequence (A0A671TG56 20-821): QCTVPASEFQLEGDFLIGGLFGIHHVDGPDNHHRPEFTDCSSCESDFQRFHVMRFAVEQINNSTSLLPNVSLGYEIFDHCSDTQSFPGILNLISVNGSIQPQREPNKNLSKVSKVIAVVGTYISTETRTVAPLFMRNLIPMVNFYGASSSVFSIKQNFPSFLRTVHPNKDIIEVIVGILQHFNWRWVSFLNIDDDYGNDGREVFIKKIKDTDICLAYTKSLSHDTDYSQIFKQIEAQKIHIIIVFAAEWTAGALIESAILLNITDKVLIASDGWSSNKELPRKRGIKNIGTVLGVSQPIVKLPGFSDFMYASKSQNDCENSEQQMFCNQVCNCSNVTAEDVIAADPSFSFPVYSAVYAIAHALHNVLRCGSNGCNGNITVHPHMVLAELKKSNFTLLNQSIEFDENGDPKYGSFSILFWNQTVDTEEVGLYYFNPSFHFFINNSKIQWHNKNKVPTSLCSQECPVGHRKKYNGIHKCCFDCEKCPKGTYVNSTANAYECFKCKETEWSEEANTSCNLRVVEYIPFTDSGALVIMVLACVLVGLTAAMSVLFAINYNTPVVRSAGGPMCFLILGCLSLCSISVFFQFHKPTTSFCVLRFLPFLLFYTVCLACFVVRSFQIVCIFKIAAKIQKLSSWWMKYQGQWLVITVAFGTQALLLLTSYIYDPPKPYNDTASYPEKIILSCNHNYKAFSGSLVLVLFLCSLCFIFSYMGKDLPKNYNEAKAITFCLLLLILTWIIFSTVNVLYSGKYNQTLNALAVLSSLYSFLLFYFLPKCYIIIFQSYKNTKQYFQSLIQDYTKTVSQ
T2 sequence (A0A671VZB3 24-860): T1 sequence (A0A671VZB3 24-860)
Text: as §1, §2, §3

[3] = test system: pGL3-NFAT-luc reporter (Ca2+/NFAT signaling); experiment: pGL3-NFAT-luc construct responsiveness in transiently transfected HEK293 cells; conditions: 10-fold serial dilutions
Text: The luciferase reporter system used in the present study is based on a pGL3-plasmid including three (N)uclear (F)actor of (A)ctivated T cells (NFAT)-responsive elements located upstream of an interleukin-2 (IL2) minimal promoter driving expression of the firefly luciferase reporter gene (pGL3-NFAT-luc plasmid; Addgene (Watertown, MA, USA), cat. number. 17870). To evaluate pGL3-NFAT-luc construct responsiveness, transiently transfected HEK293 cells were stimulated with Phorbol 12-myristate 13-acetate (PMA) and ionomycin, two compounds known to modulate NFAT signaling by mobilization of intracellular Ca^2+ storages.
Figure 4 Evaluation of pGL3-NFAT-luc construct responsiveness to 10-fold serial dilutions to PMA (A) and ionomycin (B) in transiently transfected HEK293 cells. RLU%: Relative Luminescence Unit percentage. […] BL (Basal Levels) = 100% RLU. Different lowercase letters (a,b) on top of bars indicate significant differences (p < 0.05) between concentrations, assessed by one-way ANOVA followed by Tukey’s Multiple Comparison Test (GraphPad Prism version 5.00 Software, La Jolla, CA, USA). […]

Structure (SMILES) | concentration with significant activation [1] [mM] | concentration with significant activation [2] [mM] | luminescence response of pGL3-NFAT-luc construct [3]
OC[C@@H]1O[C@@H](O[C@@]2(CO)O[C@@H](CO)[C@H](O)[C@H]2O)[C@@H](O)[C@H](O)[C@H]1O [L-Sucrose] | 100 | 100 | 
CCCCCCCCCCCCCC(=O)O[C@@H]1[C@@H](C)[C@@]2(O)[C@@H](C=C(CO)C[C@]3(O)C(=O)C(C)=C[C@@H]23)[C@@H]2C(C)(C)[C@]12OC(C)=O [PMA, Phorbol 12-myristate 13-acetate] |  |  | significant luminescence dose-response increases
C[C@H](CCC(=O)O)C[C@H](C)C[C@H](C)C(=O)/C=C(\O)[C@H](C)C[C@H](C)C/C=C/[C@@H](C)[C@@H](O)[C@@H](C)[C@@H](O)C[C@@H]1CC[C@@](C)([C@H]2CC[C@@](C)([C@@H](C)O)O2)O1 [ionomycin] |  |  | significant luminescence dose-response increases
